In patent US10406238B2, “Ligand ionophore conjugates” (PURDUE RESEARCH FOUNDATION, priority 2015, dated 2019):

How the values were obtained:
folate receptors = details: read-out: binding affinity Kd; cited from earlier work
FRβ-expressing RAW cells = assay: Endosomal escape in FRβ-expressing RAW cells (confocal); format: cell-based
folate receptor = molecular target: T1, folate receptor (Homo sapiens, UniProt P15328); assay: Binding affinity to folate receptors in KB cells
T1 construct: endogenous in cells; host or cells: KB cells (human; maintained at Purdue Cancer Cell Culture Facility)
T1 sequence (P15328 25-234): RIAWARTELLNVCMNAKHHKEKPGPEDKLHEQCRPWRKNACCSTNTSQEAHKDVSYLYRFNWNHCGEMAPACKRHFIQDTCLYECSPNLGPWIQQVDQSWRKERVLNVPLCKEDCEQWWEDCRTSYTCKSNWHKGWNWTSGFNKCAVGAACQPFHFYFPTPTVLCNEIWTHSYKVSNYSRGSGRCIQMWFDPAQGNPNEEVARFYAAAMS

KB cells [1] = assay: Confocal microscopy for endosomal release in KB cells; format: cell-based, human
KB cells [2] = system: KB cells
KB cells [3] = assay: cells; details: Homo sapiens, read-out: IC50 concentration, growth of KB cells

In the case of `Nc1nc2ncc(CNc3ccc(C(=O)N[C@@H](CCC(=O)O)C(=O)O)cc3)nc2c(=O)[nH]1` [Folic acid], the Kd (folate receptors) is listed as 0.0001 µM.

For `CCN(CC)c1ccc2c(-c3ccc(S(=O)(=O)NCCSSC[C@H](CC(=O)O)NC(=O)[C@H](CCCCN)NC(=O)[C@H](CC(=O)O)NC(=O)CC[C@H](NC(=O)c4ccc(NCc5cnc6nc(N)[nH]c(=O)c6n5)cc4)C(=O)O)cc3S(=O)(=O)[O-])c3ccc(=[N+](CC)CC)cc-3oc2c1` [compound 2, reference compound], the “accumulation of dye inside the endosomes” value (FRβ-expressing RAW cells; 10 nM FR, by 2 h, with or without folate-nigericin conjugate 1) was “significant accumulation”.

In the case of `CO[C@@H]1C[C@@H](C[C@H]2CC[C@H](C)C([C@@H](C)C(=O)OCCSSC[C@H](NC(=O)[C@H](CC(=O)O)NC(=O)[C@H](CC(=O)O)NC(=O)[C@H](CCCNC(=N)N)NC(=O)[C@H](CC(=O)O)NC(=O)CC[C@H](NC(=O)c3ccc(NCc4cnc5nc(N)[nH]c(=O)c5n4)cc3)C(=O)O)C(=O)O)O2)O[C@]2(O[C@@](C)(C3CC[C@@](C)([C@@H]4O[C@@H]([C@@H]5O[C@@](O)(CO)[C@H](C)C[C@@H]5C)C[C@@H]4C)O3)C[C@H]2C)[C@@H]1C` (some centres unmarked) [conjugate 1], the “binding affinity to folate receptors compared to folate-rhodamine compound 2” value (folate receptor) is reported as 5 times lower, the “endosome size versus cells not treated with conjugate” value (FRβ-expressing RAW cells; 100 nM FN with 10 nM FR, FIG. 9) is reported as “somewhat larger” and the “effective concentration for co-incubation” value (KB cells [1]) is reported as 200 nM. The “endosomal release of the rhodamine dye” value (KB cells [1]) was “lower”, the “release of rhodamine dye from the endosome” value (KB cells [1]) was “considerable release” and the “time of high release of rhodamine dye from endosomes” value (KB cells [1]) was 1 to 3 h.

With `CO[C@@H]1C[C@@H](C[C@H]2CC[C@H](C)C([C@@H](C)C(=O)O)O2)O[C@]2(O[C@@](C)(C3CC[C@@](C)([C@@H]4O[C@@H]([C@@H]5O[C@@](O)(COC(=O)NCCSSC[C@H](NC(=O)[C@H](CC(=O)O)NC(=O)[C@H](CC(=O)O)NC(=O)[C@H](CCCNC(=N)N)NC(=O)[C@H](CC(=O)O)NC(=O)CC[C@H](NC(=O)c6ccc(NCc7cnc8nc(N)[nH]c(=O)c8n7)cc6)C(=O)O)C(=O)O)[C@H](C)C[C@@H]5C)C[C@@H]4C)O3)C[C@H]2C)[C@@H]1C` (some centres unmarked) [conjugate 5] the “binding affinity to folate receptors compared to folate-rhodamine compound 2” value (folate receptor) was “three times lower”.

In the case of `CO[C@@H]1C[C@@H](C[C@H]2CC[C@H](C)[C@H]([C@@H](C)C(=O)O)O2)O[C@]2(O[C@](C)([C@H]3CC[C@@](C)([C@@H]4O[C@@H]([C@H]5O[C@@](O)(CO)[C@H](C)C[C@@H]5C)C[C@@H]4C)O3)C[C@H]2C)[C@@H]1C` [nigericin], the “toxicity to the cells” value (KB cells [2]) is reported as “not toxic” and the IC50 (KB cells [3]) is reported as 12 µM.
